The source of these data is patent publication US9550978B2, “Isolation and functional identification of cells” (CAPROTEC BIOANALYTICS GMBH, priority 2010, dated 2017).

Test [1] deals with HT-1080 cells. The experiment in a line: Marimastat-specific tagging of adherent cells by capture compound coated magnetic particles (Example 2a). The test is classed as cell-based, human. The following applies: culture "con", with free marimastat competitor; light microscopy. The source says: Cell culture supernatant (10% heat inactivated fetal calf serum (PAA Laboratories GmbH), 1× Penicillin/Streptomycin (PAA) in DMEM (Dulbecco's Modified Eagle Medium) High Glucose (4.5 g/l) with stable glutamin (PAA)) was removed from two cell cultures of adherent fibrosarcoma cells (cell line HT-1080 (ACC 315 Deutsche Sammlung von Mikroorganismen and Zellkulturen DSMZ Braunschweig; densely grown; 3.5 cm petri dish; passage 9) and added to further cell culture supernatant from a larger culture. The petri dish was closed to avoid drying of the cells.
20 μl 10 mg/ml strepatavidin coated magnetic particles of 1 μm diameter (Dynabeads MyOne Steptavidin C1 (Dynal)) (streptavidin magnetic particles or particles in the following) were mixed with 10 μl 100 μM marimastat capture compound V (caprotec bioanalytics GmbH)
[drawing 4] and incubated 10 min at room temperature. The particles were collected at the inner vial wall by applying a strong magnet (caproMag, caprotec bioanalytics GmbH, containing a 150×9×7 mm neodymium magnet (NdFeB) of quality N52 (1.43 Tesla)), and the supernatant was discarded. The particles were resuspended in 500 μl HT-1080 cell culture supernatant, collected magnetically anew and resuspended in 200 μl water, giving a 1 mg/ml marimastat capture compound-particle suspension. […]

Test [2] addresses T1, marimastat-binding protein on the cell surface of HT-1080 cells (Homo sapiens, UniProt P50281).
T1 construct: densely grown with adherent HT-1080 cells; endogenous in cells; host or cells: HT-1080 cells (adherent, not recombinant)
The experiment in a line: Photochemical crosslink on cell surface, detection by streptavidin-horseradish peroxidase blot (Example 5a). Conditions: sample "C": 0.5 mmol/l marimastat competitor, UV irradiated. The protocol: Five times three sterile petri dishes with 3.5 cm diameter were densely grown with adherent HT-1080 cells (passage 10, see example 2 for medium and conditions). The cell culture supernatant was collected and 400 μl of this supernatant was again applied onto the cells such that the cells were covered with a layer of cell culture supernatant. Three of the petri dishes were labeled, respectively, “A”, “C”, “PD”, “PDC” and “noCC”. To “A”, “PD” and “noCC” were added 20 μl ultrapure water, respectively. To “C” and “PDC” were added 20 μl 10 mmol/l marimastat, respectively (0.5 mmol/l final concentration) and homogenized by swaying. To “A”, “C”, “PD” and “PDC” were added 2 μl 100 μmol/l marimastat capture compound (0.5 μmol/l final concentration) and homogenized by swaying. After a 2 min incubation, cells with supernatant of petri dishes “A”, “C” and “noCC” (open lids) were irradiated for 1 min with UV light (λmax=310 nm, caproBox, caprotec Bioanalytics GmbH, Berlin). Cells with supernatant of petri dishes “PD” and “PDC” were not irradiated but otherwise treated the same (incubated in caproBox for 1 min without irradiation). The supernatant was collected and discarded (in a repetition experiment, this supernatant was also analyzed as described in example 5b). […]

For test [3], the system named is HT-1080 cells. The experiment in a line: Method 2: cell tagging with capture compound first, then streptavidin magnetic particles (Example 2b). Conditions: culture "con", free marimastat competitor added first. Type of test: cell-based, human. As to the method: Cell culture supernatant of two cell cultures of adherent fibrosarcoma cells of cell line HT-1080 was prepared as described above (example 2a).
The cultures were spiked with 400 μl cell culture supernatant each. “Ver” received 20 μl water, control “con” received 20 μl 10 mM free marimastat (competitor), both cultures were swayed for mixing and incubated 3 min at room temperature, carefully keeping the cell layer wet at all times. During this step, the free marimastat in culture “con” binds to marimastat-binding proteins or protein complexes on the surface of cells and blocks their binding sites, preventing marimastat capture compounds from binding during the subsequent step. 2 μl 100 μmol/l marimastat capture compound was added to each culture, shaken gently and incubated 5 min at room temperature. Binding of the marimastat capture compound only happens on the cell surface proteins in culture “ver” (which are not blocked). The supernatant was removed from each, both cultures were washed with 400 μl fresh cell culture supernatant twice to remove excess marimastat capture compound, and 400 μl fresh cell culture supernatant was added each. 1 μl of 10 mg/ml strepatavidin coated magnetic particles of 1 μm diameter (Dynabeads MyOne Steptavidin C1 (Dynal)), was added to each culture, homogenized by swaying and incubated 30 min at room temperature. […]

The test system of test [4] is HT-1080 cells. Briefly: Specific magnetic isolation of selectively tagged cells (Example 3). The test is classed as cell-based, human. The following applies: control "con", free marimastat competitor. The protocol:
After tagging and washing (method 2, see example 2b) the supernatant was removed from cultures “ver” and “con” and the cultures were treated with 200 μl non-enzymatic cell dissociation solution (Sigma), followed by 10 min incubation at room temperature. […] The cells were moved to two 200 μl PCR vials labelled “ver” and “con”, respectively.

The target in a further test is T2, MMP14 (Homo sapiens, UniProt P50281).
T2 construct: densely grown with adherent HT-1080 cells; endogenous in cells; host or cells: HT-1080 cells (adherent, not recombinant)
Briefly: Capture Compound Mass Spectrometry (CCMS) identification of the marimastat-binding protein (Example 5b). The following applies: excess marimastat competitor. The protocol:
In a repetition of the experiment described in example 5a, the magnetic particles after the wash buffer and water wash steps (end of 5a.ii) were additionally washed six times with 200 μl 80% acetonitrile and once with 200 μl ultrapure water. The proteins captured on the particles were digested by addition of 9 μl 50 mmol/l ammonium bicarbonate and 1 μl 0.5 mg/ml trypsin (Sequencing Grade, Roche, ProdNo. 11047841001) in 1 mmol/l HCl. The particles were kept in suspension in this solution by shaking (2000 rpm) at 37° C. over night. After magnetically separating the particles, the supernatant was evaporated and the contained tryptic peptides were analyzed by nanoLC-MS/MS after dissolving them in 0.1% formic acid (equipment: Easy-nLC liquid chromatography system; Proxeon Biosystems A/S and LTQ Orbitrap Velos mass spectrometer; Thermo Scientific). The peptide and protein identification by automated sequence database search was performed on the one hand using the search algorithms SEQUEST (implemented in the Proteome Discoverer software 1.2.0.208, Thermo Scientific) and X!Tandem (The Global Proteome Machine Organization; version 2007.01.01.1, implementiert in the Scaffold software, version 3_00_03, Proteome Software Inc.) or on the other hand using MaxQuant (version 1.1.1.25, Cox, J. and Mann, M. (2008) Nat Biotechnol 26, 1367-72.) for label-free quantification of proteins. […]

Test [5] deals with HT-1080 cells. The experiment in a line: Immobilization of cells from suspension on streptavidin coated multititer plates (Example 4). Type of test: cell-based, human. Conditions: mean of three samples. The protocol:
HT-1080 cells (see above) were treated for 30 min in cell culture medium with calcein AM to fluorescently stain the cytosol and were provided in suspension (obtained by scraping off the adherent cells using a cell spatula) at a final concentration of ˜0.5*10^6/ml in culture medium. White blood cells (WBC) freshly obtained from a donor by lysis of erythrocytes and subsequent washing and resuspension were adjusted to a final concentration of ˜5*10^6/ml in phosphate buffered saline (PBS). 12-well multititer plates (streptavidin coated) were used for cell immobilization.
Samples of HT-1080 cells to be used as controls were treated with adjusted to 50 μmol/l free marimastat in medium by adding a stock solution (10 mM) of the competitor (samples marked “C”). Non-competitor verum samples are marked “A”.
Samples treated with marimastat capture compound in solution were adjusted to 0.5 μmol/l capture compound in medium from 20 μmol/l stock solution (samples labelled “ind”), or attached to the capture compound-treated streptavidin-coated surface (samples labelled “dir”).
For determining the influence on binding by activating the reactivity function by UV irradiation (samples labelled “UV”) in samples for indirect binding (first capture compound attaching to cells, then cells binding to surface), cells were irradiated for 1 min by a near UV laboratory source (λmax=310 nm, caproBox, caprotec bioanalytics GmbH, Berlin) in an uncoated well (or not for samples without UV irradiation), collected, spun down, washed, and transferred to a streptavidin-coated well (incubation time˜3 h). Samples for direct binding were brought into capture compound coated wells (prepared as described below) directly (incubation time˜3 h) and UV-irradiated therein (or not for samples without UV irradiation). For loading the streptavidin-coated microtiter plates with capture compound, the wells were rinsed repeatedly for 10 min with 10 μl of 20 μM marimastat capture compound per well in 200 μl PBS at room temperature; the supernatant was discarded and the wells were washed with PBS.
The medium over the cells bound to the surface was mainly removed (a minimum rest was left to cover the cells and not let the cells dry) and all wells were washed carefully two times with 1 ml medium. HT-1080 cells were counted by their calcein AM fluorescence using a Cellavista system. Values below are adjusted for HT-1080 cell numbers delivered onto the well (1.9*10^5).

As to `CNC(=O)[C@@H](NC(=O)[C@H](CC(C)C)[C@H](O)C(=O)NO)C(C)(C)C` [marimastat], in the test on HT-1080 cells [1], the “tagging of cells on their surface by particles after washing” value was “not marked, or to only very little extent”. Moreover, the “blot signal of protein photochemically crosslinked with the capture compound” value in test [2] is given as “the signal is absent”. In addition, the “particle tagging of cells after washing” value with HT-1080 cells [3] is on record as “little or no particles are visible”. Besides, the “retention of tagged cells at vial wall by magnet” value in the test with HT-1080 cells [4] is “mostly sunk to the bottom of the vial”. At MMP14, the “MMP14 capture in presence of competitor (MaxQuant analysis)” value was “completely suppressed”. Further, the “Percent input cells recovered” value is 14.5 (standard deviation of Percent with HT-1080 cells [5] (C dir (no UV): direct binding, marimastat excess competitor, no UV); 7.9 (standard deviation of Percent in the test with HT-1080 cells [5] (C dir UV: direct binding, marimastat excess competitor, UV activated); 1.1 (standard deviation of Percent in the test with HT-1080 cells [5] (C ind (no UV): indirect binding, marimastat excess competitor, no UV); 0.7 (standard deviation of Percent in the test on HT-1080 cells [5] (C ind UV: indirect binding, 50 μmol/l free marimastat competitor, UV activated).
